Test results published in patent US7208282B2 (priority 2001, dated 2007).
Where “and” joins values, the source holds several entries; their conditions need not be identical. Equal entries are not always repeated.

Legend:
non-transfected cells = test: intracellular calcium (fura-2) in non-transfected HEK293T cells; format: cell-based, human; details: data not shown
From the text: The entire coding sequence of rhesus MCH-2R was cloned into BamHI-NotI site of pEF1/[…] C plasmid vector (Invitrogen). The resultant construct was transfected into HEK293T cells using LipofectAmine PLUS (Life Technologies, Rockville, Md.) according to the manufacture's instructions. Human embryonic kidney cells constitutively expressing SV40 large T antigen (HEK-293T) were maintained in Dulbecco's modified Eagle medium (Life Technologies) supplemented with 10% fetal bovine serum, 100 units/ml penicillin-G and 100 μg/ml streptomycin at 37° C. with 5% CO2 in a humidified atmosphere. […] The cells were suspended with the buffer containing 2 μM fura-2 acetoxymethylester (Dojin, Kumamoto, Japan) into the cell density of 1.0×10^7 cells/ml and incubated at 37° C. for 60 minutes with gently shaking. The fura-2-loaded cells were washed twice with the buffer and re-suspended with the buffer to 1.0×10^6 cells/ml. 0.5 ml of the resultant suspension was stirred continuously at 37° C. in a glass cuvette during the measurement. […] Data were analyzed using the software GraphPad Prism Version 3.0 (GraphPad Software, Inc., San Diego, Calif., USA).

ferret MCH-2R [1] = test: membrane radioligand binding assay, transfected COS-7 cells, ferret MCH-2R; details: COS-7 membranes
Sequence of ferret MCH-2R (as listed by the source): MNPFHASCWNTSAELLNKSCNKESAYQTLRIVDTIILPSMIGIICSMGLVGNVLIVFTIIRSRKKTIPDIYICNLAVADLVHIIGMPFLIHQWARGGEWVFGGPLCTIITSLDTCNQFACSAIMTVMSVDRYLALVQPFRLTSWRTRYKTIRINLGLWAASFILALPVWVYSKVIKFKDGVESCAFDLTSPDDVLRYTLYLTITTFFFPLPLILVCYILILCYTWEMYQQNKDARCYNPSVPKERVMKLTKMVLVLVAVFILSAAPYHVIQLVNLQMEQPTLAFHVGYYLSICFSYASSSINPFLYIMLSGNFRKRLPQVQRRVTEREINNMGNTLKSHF
Method: Membrane binding assays were performed on transiently-transfected COS-7 cells using human or ferret MCH-2R in the plasmid vector pCI-neo (Promega, Madison, Wis.), COS-7 cells were cultured in Dulbecco's modified Eagle medium (Gibco BRL, Rockville, Md.) with 10% heat inactivated fetal calf serum.
A suspension of 7×10^6 COS-7 cells were transfected with 20 μg of pCI-neo/MCH-2R plasmid by electroporation. (Strader, et al., 1987. Proc. Natl. Acad. Sci. USA 84, 4384–4388). Cells were harvested after 60–72 hours. Membranes were prepared from transient and stable transfectants by hypotonic lysis, frozen in liquid nitrogen, and stored at −80° C. (MacNeil, et al., 1994. Biochem. Biophys. Res. Commun. 198, 328–334.)
A binding assay was set up in 96 well plates. Total volume per binding assay point was 200 μL. […] Dose response curves were from 10 μM in 5 fold or 3-fold dilution series for 11 points. The mixture was shaken for 5 minutes on a platform shaker, and incubated at room temperature for 1 hour. Filter plates were presoaked in 1% PEI. The binding reaction was harvested onto filters using Packard Filtermate harvester (Meriden, Conn.). The filters were then washed in 50 mM Tris pH 7.4, 10 mM MgCl2, 2 mM EDTA, 0.04% Tween 20, 6–8 times per plate. […] 30 μL microscintillant was added per well and counted for 1.5–3 minutes in inverted format on Packard TopCount. […]

ferret MCH-2R [2] = test: aequorin bioluminescence functional assay, ferret MCH-2R; format: cell-based; details: aequorin HEK-293 cells, read-out: Function (EC50)
From the text: The aequorin bioluminescence assay is a reliable test for identifying G-protein-coupled receptors which couple through the G protein subunit family consisting of Gq and G11 which leads to the activation of phospholipase C, mobilization of intracellular calcium, and activation of protein kinase C. (Ungrin, et al., Anal. Biochem. 1999. 272:34–42.)
For expression studies, HEK-293 cells stably expressing the aequorin reporter protein were transiently transfected with MCH-2R human or ferret expression plasmid or stable cell lines were derived (human MCH-2R). The assay was performed using a Luminoscan RT luminometer (Labsystems Inc., Gaithersburg, Md.).
293AEQ17/Aequorin cells (Button, et al., 1993. Cell Calcium 14, 663–671), were cultured for 72 hours and the apo-aequorin in the cells was charged for 1 hour with coelenterazine (10 μM) under reducing conditions (300 μM reduced glutathione) in ECB buffer (140 mM NaCl, 20 mM KCl, 20 mM HEPES-NaOH, pH 7.4, 5 mM glucose, 1 mM MgCl2, 1 mM CaCl2, 0.1 mg/mL bovine serum albumin). […] 100 μL of cell suspension (corresponding to 5×10^4 cells) was then injected into the test plate containing ligands, and the integrated light emission was recorded over 30 seconds, in 0.5-second units. 20 μL of lysis buffer (0.1% final Triton X-100 concentration) was then injected and the integrated light emission recorded over 10 seconds, in 0.5-second units. […]

mock transfected cells = test: radioligand binding to mock transfected HEK293T cells; design: species or system human; details: for specific binding into mock transfected cells: in words
Method: HEK293T cells were seeded into 24-well culture plates coated with poly-D-Lys at 1×10^5 cells/well and were cultured over-night. […] Forty-eight hours after transfection, the transfected monolayer cells were rinsed with the assay buffer (Hanks' balanced salt solution containing 20 mM HEPES, 0.2% BSA and 100 μg/ml bacitracin, pH 7.4). The cells were then incubated in 250 μl/well of the same buffer with [^125I]-MCH (100 pM, NEN Life Science Products, Boston, Mass.) or [^125I]-[Phe^13, Tyr^19]-MCH (100 pM, NEN Life Science Products) for 30 minutes at 37° C. After the incubation, the cells were washed three times with the ice cold assay buffer and lysed with 500 μl/well of 2 M NaOH. The lysates were transferred into test tubes and the cell-bound radioactivity was measured by a COBLA Quantum γ-counter (Packard Instrument, Meriden, Conn.).

rhesus MCH-2R = biological target: T1, rhesus MCH-2R (Macaca mulatta, UniProt Q8MJ88); test: radioligand binding to adherent HEK293T cells expressing rhesus MCH-2R; design: species or system rhesus monkey
T1 construct: expressed in transfected cells; host or cells: HEK293T
T1 sequence (Q8MJ88 whole entry): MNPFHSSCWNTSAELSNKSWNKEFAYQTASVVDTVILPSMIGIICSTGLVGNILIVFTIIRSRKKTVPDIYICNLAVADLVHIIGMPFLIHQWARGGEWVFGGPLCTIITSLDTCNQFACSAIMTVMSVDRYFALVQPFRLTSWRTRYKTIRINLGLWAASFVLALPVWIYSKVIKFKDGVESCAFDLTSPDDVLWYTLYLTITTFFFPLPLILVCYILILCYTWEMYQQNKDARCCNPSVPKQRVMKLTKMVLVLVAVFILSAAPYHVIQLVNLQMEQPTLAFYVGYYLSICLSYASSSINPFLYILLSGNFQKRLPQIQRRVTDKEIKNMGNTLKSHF
Method: HEK293T cells were seeded into 24-well culture plates coated with poly-D-Lys at 1×10^5 cells/well and were cultured over-night. The adherent cells were transfected with pEF1/V5-HisC/rhesus MCH-2R plasmid (see Example 2). Forty-eight hours after transfection, the transfected monolayer cells were rinsed with the assay buffer (Hanks' balanced salt solution containing 20 mM HEPES, 0.2% BSA and 100 μg/ml bacitracin, pH 7.4). The cells were then incubated in 250 μl/well of the same buffer with [^125I]-MCH (100 pM, NEN Life Science Products, Boston, Mass.) or [^125I]-[Phe^13, Tyr^19]-MCH (100 pM, NEN Life Science Products) for 30 minutes at 37° C. After the incubation, the cells were washed three times with the ice cold assay buffer and lysed with 500 μl/well of 2 M NaOH. The lysates were transferred into test tubes and the cell-bound radioactivity was measured by a COBLA Quantum γ-counter (Packard Instrument, Meriden, Conn.).

[3] = 100 pM radioligand, Mock transfected cells

| IC50 (ferret MCH-2R [1]) | EC50 (ferret MCH-2R [2]) | [125I]-[Phe13, Tyr19]-MCH binding, Nonspecific binding (rhesus MCH-2R; 100 pM radioligand, in the presence of 1 μM cold [Phe13, Tyr19]-MCH, rhesus MCH-2R transfected cells) | binding to HEK293T cells expressing rhesus MCH-2R (rhesus MCH-2R; in words) | Substance | [Ca2+]i increase in non-transfected cells (non-transfected cells) | [125I]-MCH binding, Total binding (mock transfected cells; [3]) | [125I]-MCH binding, Nonspecific binding (mock transfected cells; 100 pM radioligand, in the presence of 1 μM cold MCH, Mock transfected cells) | specific binding into mock transfected cells (mock transfected cells) | [125I]-[Phe13, Tyr19]-MCH binding, Total binding (rhesus MCH-2R; 100 pM radioligand, 30 minutes at 37° C., rhesus MCH-2R transfected cells) | [125I]-[Phe13, Tyr19]-MCH binding, Total binding (mock transfected cells; [3]) | [125I]-[Phe13, Tyr19]-MCH binding, Nonspecific binding (mock transfected cells; 100 pM radioligand, in the presence of 1 μM cold [Phe13, Tyr19]-MCH, Mock transfected cells) |
| --- | --- | --- | --- | --- | --- | --- | --- | --- | --- | --- | --- |
| 55 nM | 69 nM |  |  | Melanin-concentrating hormone [MCH] | failed to induce a detectable [Ca^2+]i increase |  |  |  |  |  |  |
|  |  |  |  | [^125I]-MCH |  | 209.9 cpm and 215.8 cpm and 239.8 cpm | 172.0 cpm and 180.9 cpm and 184.1 cpm | not observed |  |  |  |
|  |  | 567.4 cpm and 717.0 cpm and 598.0 cpm | good windows | [^125I]-[Phe^13, Tyr^19]-MCH |  |  |  | not observed | 18031.2 cpm and 18749.0 cpm and 17985.4 cpm | 708.9 cpm and 663.3 cpm and 771.5 cpm | 539.7 cpm and 537.7 cpm and 557.8 cpm |
